Results on 45 compounds are retold here after patent US7964624B1, “Inhibitors of serine proteases” (priority 2005, dated 2011).

Usually pKi stands for the negative decadic logarithm of the Ki, by convention in mol/L.

Molecules are shown by their SMILES. pKi: −log10 of the molar value.

For the test, the target named is T1, HCV NS3 protease domain (Hepatitis C virus genotype 1b, UniProt Q9WMX2).
T1 construct: The first 181 amino acids of NS3 (residues 1027-1207 of the viral polyprotein); hexa-histidine (C); made in house; host or cells: E. coli BL21/DE3 pLysS
T1 sequence (Q9WMX2 1027-1207, other chains not shown): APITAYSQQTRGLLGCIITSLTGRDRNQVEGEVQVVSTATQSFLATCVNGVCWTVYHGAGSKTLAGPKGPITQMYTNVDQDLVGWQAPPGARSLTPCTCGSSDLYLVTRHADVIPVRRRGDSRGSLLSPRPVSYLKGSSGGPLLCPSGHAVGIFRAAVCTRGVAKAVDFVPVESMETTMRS
In words: biochemical. Conditions: Enzyme Assay 1 (HCV NS3 Protease Domain Peptide Cleavage Assay) activity, apparent Ki class.
`CCC[C@H](NC(=O)[C@@H]1C[C@]2(CC(C(=O)NCc3ccccc3)=NO2)CN1C(=O)[C@@H](NC(=O)O[C@H]1CCOC1)C(C)(C)C)C(=O)C(=O)NC1CC1` [Compound 341]: the pKi was under 6.30.
Then `CCC[C@H](NC(=O)[C@@H]1C[C@]2(CC(c3cccc(Cl)c3)=NO2)CN1C(=O)[C@@H](Nc1ncc(C)cc1[N+](=O)[O-])C(C)(C)C)C(=O)C(=O)NC1CC1` [Compound 345], with under 6.30; and `CCC[C@H](NC(=O)[C@@H]1C[C@]2(CC(c3cc(F)cc(C(F)(F)F)c3)=NO2)CN1C(=O)O[C@H]1CCOC1)C(=O)C(=O)NC1CC1` [Compound 348], with under 6.30.
Then `CCC[C@H](NC(=O)[C@@H]1C[C@]2(CC(c3cccc(Cl)c3)=NO2)CN1C(=O)[C@@H](NC(=O)CC1CCCCC1)C(C)(C)C)C(=O)C(=O)Nc1cccc(C(C)=O)c1` [Compound 355], with under 6.30.
In the case of `CCC[C@H](NC(=O)[C@@H]1C[C@]2(CC(c3cccc(Cl)c3)=NO2)CN1C(=O)[C@@H](NC(=O)OCc1ccncc1)C(C)(C)C)C(=O)C(=O)NC1CC1` [Compound 357] it was 6.30 to 7.00; in that of `C=C[C@@H]1C[C@]1(NC(=O)[C@@H]1C[C@]2(CC(c3cccc(Cl)c3)=NO2)CN1C(=O)[C@@H](NC(=O)CC1CCOCC1)C(C)(C)C)C(=O)NS(=O)(=O)C1CC1` [Compound 359], 6.30 to 7.00; in that of `CCC[C@H](NC(=O)[C@@H]1C[C@]2(CC(c3cccc(Cl)c3)=NO2)CN1C(=O)[C@@H](NC(=O)CC1CCCCCC1)C(C)(C)C)C(=O)C(=O)NC1CC1` [Compound 360], under 6.30.
With `CCC[C@H](NC(=O)[C@@H]1C[C@]2(CC(C(=O)c3ccc(Cl)cc3)=NO2)CN1C(=O)[C@@H](NC(=O)O[C@H]1CCOC1)C(C)(C)C)C(=O)C(=O)NC1CC1` [Compound 364], the pKi was under 6.30.
In the case of `CCC[C@H](NC(=O)[C@@H]1C[C@]2(CC(c3ccccc3)=NO2)CN1C(=O)NCc1cc(OC)c(OC)c(OC)c1)C(=O)C(=O)NC1CC1` [Compound 367] it was under 6.30; in that of `CCC[C@H](NC(=O)[C@@H]1C[C@]2(CC(c3ccc(OC)cc3OC)=NO2)CN1C(=O)OCC1c2ccccc2-c2ccccc21)C(=O)C(=O)NC1CC1` [Compound 371], 6.30 to 7.00.
In the case of `CCC[C@H](NC(=O)[C@@H]1C[C@]2(CC(c3cccc(Cl)c3)=NO2)CN1C(=O)[C@@H](NC(=O)OCCCc1ccccn1)C(C)(C)C)C(=O)C(=O)NC1CC1` [Compound 373] it was 6.30 to 7.00; in that of `CCC[C@H](NC(=O)[C@@H]1C[C@]2(CC(c3cccc(Cl)c3)=NO2)CN1C(=O)[C@@H](NC(=O)OC1CCOCC1)C(C)(C)C)C(=O)C(=O)NC1CC1` [Compound 374], 6.30 to 7.00; in that of `CCC[C@H](NC(=O)[C@@H]1C[C@]2(CC(c3ccc4c(c3)OCO4)=NO2)CN1C(=O)[C@@H](NC(=O)CC1CCOCC1)C(C)(C)C)C(=O)C(N)=O` [Compound 375], under 6.30.
In the case of `CCC[C@H](NC(=O)[C@@H]1C[C@]2(CC(c3cccc(Cl)c3)=NO2)CN1C(=O)[C@@H](NC(=O)OCc1ccccn1)C(C)(C)C)C(=O)C(=O)NC1CC1` [Compound 378] it was 6.30 to 7.00; in that of `CCC[C@H](NC(=O)[C@@H]1C[C@]2(CC(c3cccc(Cl)c3)=NO2)CN1C(=O)[C@@H](NC(=O)NC(C)C)C(C)(C)C)C(=O)C(=O)NC1CC1` [Compound 379], over 7.00.
`CCC[C@H](NC(=O)[C@@H]1C[C@]2(CC(c3cccc(Cl)c3)=NO2)CN1C(=O)[C@@H](NC(=O)c1n[nH]c(=O)c2ccccc12)C(C)(C)C)C(=O)C(=O)NC1CC1` [Compound 381]: the pKi is 6.30 to 7.00.
Then `CCC[C@H](NC(=O)[C@@H]1C[C@]2(CC(CC)=NO2)CN1C(=O)[C@@H](NC(=O)OCc1ccccc1)C(C)(C)C)C(=O)C(=O)NC1CC1` [Compound 383], with under 6.30; and `CCC[C@H](NC(=O)[C@@H]1C[C@]2(CC(c3ccc(C)cc3)=NO2)CN1C(=O)[C@@H](NC(=O)O[C@H]1CCOC1)C(C)(C)C)C(=O)C(=O)NC1CC1` [Compound 385], with under 6.30.
In the case of `CCC[C@H](NC(=O)[C@@H]1C[C@]2(CC(c3cccc(Cl)c3)=NO2)CN1C(=O)[C@@H](NC(=O)O[C@H]1CO[C@H]2OCC[C@H]21)C(C)(C)C)C(=O)C(=O)NC1CC1` [Compound 387] it was 6.30 to 7.00; in that of `CCC[C@H](NC(=O)[C@@H]1C[C@]2(CC(c3cccc(Cl)c3)=NO2)CN1C(=O)[C@@H](NC(=O)OCCCc1cccnc1)C(C)(C)C)C(=O)C(=O)NC1CC1` [Compound 389], under 6.30.
For the compound `CCC[C@H](NC(=O)[C@@H]1C[C@]2(CC(c3cccc(Cl)c3)=NO2)CN1C(=O)[C@@H](NC(=O)CC(C)(C)O)C(C)(C)C)C(=O)C(=O)NC1CC1` [Compound 392], the negative-log Ki (pKi) was 6.30 to 7.00.
In the case of `CCC[C@H](NC(=O)[C@@H]1C[C@]2(CC(c3cccc(Cl)c3)=NO2)CN1C(=O)[C@@H](NC(=O)C(F)c1ccccc1)C(C)(C)C)C(=O)C(=O)NC1CC1` (stereo partly drawn) [Compound 393] it was 6.30 to 7.00; in that of `CCCC1=NO[C@]2(C1)C[C@@H](C(=O)N[C@@H](CCC)C(=O)C(=O)NC1CC1)N(C(=O)[C@@H](NC(=O)[C@@H](NC(=O)c1cnccn1)C1CCCCC1)C(C)(C)C)C2` [Compound 400], over 7.00.
Then `CCC[C@H](NC(=O)[C@@H]1C[C@]2(CC(c3cccc(Cl)c3)=NO2)CN1C(=O)[C@@H](NC(=O)CC1=C(c2cccs2)CCC1=O)C(C)(C)C)C(=O)C(=O)NC1CC1` [Compound 402], with 6.30 to 7.00; and `CCC[C@H](NC(=O)[C@@H]1C[C@]2(CC(c3ccc(C(C)C)cc3)=NO2)CN1C(=O)O[C@H]1CCOC1)C(=O)C(=O)NC1CC1` [Compound 405], with under 6.30.
In the case of `CCC[C@H](NC(=O)[C@@H]1C[C@]2(CC(c3cccc(Cl)c3)=NO2)CN1C(=O)[C@@H](NC(=O)OCC)C(C)(C)C)C(=O)C(=O)NC1CC1` [Compound 407] it was 6.30 to 7.00; in that of `CCC[C@H](NC(=O)[C@@H]1C[C@]2(CC(c3ccc(F)c(C)c3)=NO2)CN1C(=O)O[C@H]1CCOC1)C(=O)C(=O)NC1CC1` [Compound 413], under 6.30.
In the case of `CCC[C@H](NC(=O)[C@@H]1C[C@]2(CC(c3cc(F)c(F)c(F)c3)=NO2)CN1C(=O)O[C@H]1CCOC1)C(=O)C(=O)NC1CC1` [Compound 414], the pKi is under 6.30.
Then `CC(C)(C)[C@H](NC(=O)OCc1ccccc1)C(=O)N1C[C@@]2(CC(c3ccc4c(c3)OCO4)=NO2)C[C@H]1C(=O)NC(CC1CCC1)C(=O)C(N)=O` (stereo partly drawn) [Compound 415], with 6.30 to 7.00.
In the case of `CCC[C@H](NC(=O)[C@@H]1C[C@]2(CC(c3ccc(F)cc3)=NO2)CN1C(=O)[C@@H](NC(=O)[C@@H](NC(=O)c1cnccn1)C(C)(C)C)C(C)(C)C)C(=O)C(=O)NC1CC1` [Compound 417] it was over 7.00; in that of `CCC[C@H](NC(=O)[C@@H]1C[C@]2(CC(c3cccc(Cl)c3)=NO2)CN1C(=O)C1CC1c1ccccc1)C(=O)C(=O)NC1CC1` (stereo partly drawn) [Compound 421], under 6.30.
With `CCC[C@H](NC(=O)[C@@H]1C[C@]2(CC(c3ccc4c(c3)OCO4)=NO2)CN1C(=O)[C@@H](NC(=O)O[C@H]1CCOC1)C(C)(C)C)C(=O)C(N)=O` [Compound 422], the pKi was 6.30 to 7.00.
`CCC[C@H](NC(=O)[C@@H]1C[C@@]2(CC(c3ccc(C)c(F)c3)=NO2)CN1C(=O)[C@@H](NC(=O)O[C@H]1CCOC1)C(C)(C)C)C(=O)C(=O)NC1CC1` [Compound 423]: the pKi was under 6.30.
In the case of `COc1ccc(C2=NO[C@@]3(C2)C[C@@H](C(=O)NC(CC2CCC2)C(=O)C(N)=O)N(C(=O)[C@@H](NC(=O)OCc2ccccc2)C(C)(C)C)C3)c(OC)c1` (stereo partly drawn) [Compound 424] it was 6.30 to 7.00; in that of `CCC[C@H](NC(=O)[C@@H]1C[C@]2(CC(c3cccc(-c4ccncc4)c3)=NO2)CN1C(=O)[C@@H](NC(=O)O[C@H]1CCOC1)C(C)(C)C)C(=O)C(=O)NC1CC1` [Compound 425], under 6.30.
As to `CCC[C@H](NC(=O)[C@@H]1C[C@]2(CC(c3cccc(Cl)c3)=NO2)CN1C(=O)[C@H](Cc1ccccc1)NC(=O)OCC)C(=O)C(=O)NC1CC1` [Compound 427], the pKi was under 6.30.
Take `CCC[C@H](NC(=O)[C@@H]1C[C@@]2(CC(c3ccccc3)=NO2)CN1C(=O)[C@@H](NC(=O)[C@@H](NC(=O)c1cnccn1)C1CCCCC1)C(C)(C)C)C(=O)C(=O)NC1CC1` [Compound 428]: the negative logarithm of the Ki (pKi) was 6.30 to 7.00.
Then `CCC[C@H](NC(=O)[C@@H]1C[C@]2(CC(c3cccc(Cl)c3)=NO2)CN1C(=O)[C@@H](NC(=O)Cc1ccccc1C)C(C)(C)C)C(=O)C(=O)NC1CC1` [Compound 431], with 6.30 to 7.00.
Turning to `CCC[C@H](NC(=O)[C@@H]1C[C@]2(CC(c3cccc(Cl)c3)=NO2)CN1C(=O)[C@@H](NC(=O)N(C)CC)C(C)(C)C)C(=O)C(=O)NC1CC1` [Compound 432], the pKi was under 6.30.
In the case of `CCC[C@H](NC(=O)[C@@H]1C[C@]2(CC(c3cccc(OC)c3OC)=NO2)CN1C(=O)[C@@H](NC(=O)OCc1ccccc1)C(C)(C)C)C(=O)C(=O)NC1CC1` [Compound 434], the pKi was 6.30 to 7.00.
Then `CCC[C@H](NC(=O)[C@@H]1C[C@]2(CC(c3cccc(Cl)c3)=NO2)CN1C(=O)[C@@H](NC(=O)c1c(OC)ccc2ccccc12)C(C)(C)C)C(=O)C(=O)NC1CC1` [Compound 435], with 6.30 to 7.00; and `CCC[C@H](NC(=O)[C@@H]1C[C@]2(CC(c3ccc(Cl)c(C)c3)=NO2)CN1C(=O)[C@@H](NC(=O)CC1CCCCC1)C(C)(C)C)C(=O)C(=O)NC1CC1` [Compound 436], with 6.30 to 7.00.
As for `CCC[C@H](NC(=O)[C@@H]1C[C@]2(CC(c3cccc(C)c3)=NO2)CN1C(=O)[C@@H](NC(=O)O[C@H]1CCOC1)C(C)(C)C)C(=O)C(=O)NC1CC1` [Compound 444], the pKi was 6.30 to 7.00.
In the case of `CCC[C@H](NC(=O)[C@@H]1C[C@]2(CC(c3ccc4noc(-c5ccc(Cl)cc5)c4c3)=NO2)CN1C(=O)[C@@H](NC(=O)O[C@H]1CCOC1)C(C)(C)C)C(=O)C(=O)NC1CC1` [Compound 448] it was 6.30 to 7.00; in that of `CCC[C@H](NC(=O)[C@@H]1C[C@]2(CC(c3cccc(Cl)c3)=NO2)CN1C(=O)[C@@H](NC(=O)Cc1cc2c(cc1Cl)OCO2)C(C)(C)C)C(=O)C(=O)NC1CC1` [Compound 449], 6.30 to 7.00.
